PubChem BioAssay (NCI)
Values joined by “and” are separate entries in the source; they are usually repeats but may differ in a detail not shown here. Identical values can stand only once.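 Interpolation was linear, between the two tested concentrations surrounding the appropriate level; five concentrations were tested over 48 hours in 96-well plates. Here, GI50 denotes the concentration required for 50% inhibition of growth. TGI is the concentration that stops growth completely.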

Experiments:
Assay in all cases: NCI anticancer screen, dose series, 48 h
[1] = test system: NCI-H460 lung
[2] = test system: HT29 colon
[3] = test system: SK-OV-3 ovarian
[4] = test system: SR leukemia
[5] = test system: COLO 205 colon
[6] = test system: SF-268 CNS
[7] = test system: PC-3 prostate
[8] = test system: HOP-62 NSCLC
[9] = test system: MCF7 breast
[10] = test system: SF-539 CNS

CN(c1ccc(C#N)c(Cl)c1)C1CCC(NC(=O)c2ccc(N3CCN(C4CN(c5ccc6c(c5)C(=O)N(C5CCC(=O)NC5=O)C6=O)C4)CC3)cc2)CC1 (centres undefined)
GI50 [1]: > 100 µM | TGI [1]: > 100 µM | GI50 [2]: > 100 µM | TGI [2]: > 100 µM | GI50 [3]: > 100 µM | TGI [3]: > 100 µM | GI50 [4]: > 100 µM | TGI [4]: > 100 µM | GI50 [5]: > 100 µM | TGI [5]: > 100 µM | GI50 [6]: > 100 µM | TGI [6]: > 100 µM | GI50 [7]: > 100 µM | TGI [7]: > 100 µM | GI50 [8]: > 100 µM | TGI [8]: > 100 µM | GI50 [9]: > 100 µM | TGI [9]: > 100 µM | GI50 [10]: > 100 µM | TGI [10]: > 100 µM

COc1cc(/C=C/[N+](=O)[O-])cc(OC)c1OC
GI50 [1]: 3.36 µM | TGI [1]: 12.4 µM | GI50 [2]: 2.2 µM | TGI [2]: 4.81 µM | GI50 [3]: 4.79 µM | TGI [3]: 16.1 µM | GI50 [4]: 3.36 µM | TGI [4]: 12.5 µM | GI50 [5]: 1.7 µM | TGI [5]: 3.33 µM | GI50 [6]: 4.39 µM | TGI [6]: 15.2 µM | GI50 [7]: 3.25 µM | TGI [7]: 10.6 µM | GI50 [8]: 3.34 µM | TGI [8]: 13.6 µM | GI50 [9]: 3.08 µM | TGI [9]: 14.6 µM | GI50 [10]: 2.19 µM | TGI [10]: 4.36 µM

NNc1c2ccccc2nc2ccccc12
GI50 [1]: 2.48 µM | TGI [1]: 15.5 µM | GI50 [2]: 3.28 µM | TGI [2]: 16.1 µM | GI50 [3]: 6.91 µM | TGI [3]: > 100 µM | GI50 [4]: 3.4 µM | TGI [4]: 19.8 µM | GI50 [5]: 4.63 µM | TGI [5]: 18.3 µM | GI50 [6]: 5.94 µM | TGI [6]: > 100 µM | GI50 [7]: 2.34 µM | TGI [7]: 37.3 µM | GI50 [8]: 5.56 µM | TGI [8]: 79 µM | GI50 [9]: 3.77 µM | TGI [9]: 33.7 µM | GI50 [10]: 3.73 µM | TGI [10]: 22.9 µM

C[C@H]1c2ccccc2CN1CCCOc1cc2c(cc1OCC1CC1)C1(CCCC1)C(N)=N2
GI50 [1]: 1.02 µM | TGI [1]: 2.1 µM | GI50 [2]: 1.05 µM | TGI [2]: 2.67 µM | GI50 [3]: 4.84 µM | TGI [3]: 10.7 µM | GI50 [4]: 1.15 µM | TGI [4]: 2.87 µM | GI50 [5]: 0.842 µM | TGI [5]: 1.68 µM | GI50 [6]: 2.94 µM | TGI [6]: 10.3 µM | GI50 [7]: 1.69 µM | TGI [7]: 7.6 µM | GI50 [8]: 3.67 µM | TGI [8]: 10.2 µM | GI50 [9]: 1.18 µM | TGI [9]: 3.46 µM | GI50 [10]: 0.922 µM | TGI [10]: 1.89 µM

CCOC1OC(=O)[C@H]2[C@@H]1[C@@H]1CC[C@H]2O1 (some centres undefined)
GI50 [1]: > 100 µM | TGI [1]: > 100 µM | GI50 [2]: 24.8 µM | TGI [2]: > 76.3 µM | GI50 [3]: > 100 µM | TGI [3]: > 100 µM | GI50 [4]: 33.8 µM | TGI [4]: > 100 µM | GI50 [5]: 7.96 µM | TGI [5]: > 19.8 µM | GI50 [6]: > 100 µM | TGI [6]: > 100 µM | GI50 [7]: > 100 µM | TGI [7]: > 100 µM | GI50 [8]: > 100 µM | TGI [8]: > 100 µM | GI50 [9]: > 100 µM | TGI [9]: > 100 µM | GI50 [10]: > 100 µM | TGI [10]: > 100 µM

Cn1nnc2c(C(N)=O)ncn2c1=O
TGI [1]: > 100 µM | TGI [2]: > 100 µM | TGI [3]: 100 µM | TGI [4]: > 100 µM | TGI [5]: > 100 µM | TGI [6]: > 100 µM | TGI [7]: > 100 µM | TGI [8]: > 100 µM | TGI [9]: > 100 µM | TGI [10]: > 100 µM

Clc1ccccc1NN(Cc1ccncc1)c1ccccc1Cl
TGI [2]: 26.1 µM | TGI [3]: 44.9 µM | TGI [4]: 32.2 µM | TGI [5]: 32 µM | TGI [6]: 36.2 µM | TGI [7]: 28.9 µM | TGI [8]: 29.2 µM | TGI [9]: 53.5 µM | TGI [10]: 36 µM

CC1=C(Cl)C[C@@H](/C(C)=C\Cl)O[C@@]1(O)C(Br)Br
TGI [1]: > 100 µM | TGI [2]: > 100 µM | TGI [3]: > 100 µM | TGI [4]: 84.6 µM | TGI [5]: 88.5 µM | TGI [6]: > 100 µM | TGI [7]: > 100 µM | TGI [8]: > 100 µM | TGI [9]: 49.3 µM | TGI [10]: > 100 µM

OCc1ccc(N2CCCC2)cc1Cl
GI50 [1]: 3.55 µM | TGI [1]: 28.5 µM | GI50 [2]: 7.9 µM | TGI [2]: 76.4 µM | GI50 [3]: 27.3 µM | TGI [3]: > 90.6 µM | GI50 [4]: 46.2 µM | TGI [4]: > 100 µM | GI50 [5]: 2.01 µM | TGI [5]: 5.11 µM | GI50 [6]: > 61.3 µM | TGI [6]: > 100 µM | GI50 [7]: > 84.7 µM | TGI [7]: > 100 µM | GI50 [8]: 10.2 µM | TGI [8]: > 100 µM | GI50 [9]: 1.95 µM | TGI [9]: > 61.9 µM | GI50 [10]: > 58.7 µM | TGI [10]: > 100 µM

Oc1c(Cl)cc(Cl)c2cccnc12
GI50 [1]: 1.87 µM | TGI [1]: 6.9 µM | GI50 [2]: 4.99 µM | TGI [2]: 18 µM | GI50 [3]: 3.71 µM | TGI [3]: 16.2 µM | GI50 [4]: 2.68 µM | TGI [4]: 9.48 µM | GI50 [5]: 3.43 µM | TGI [5]: 13.4 µM | GI50 [6]: 3.39 µM | TGI [6]: > 100 µM | GI50 [7]: 3.94 µM | TGI [7]: > 100 µM | GI50 [8]: 2.24 µM | TGI [8]: 21.1 µM | GI50 [9]: 3.75 µM | TGI [9]: 13.8 µM | GI50 [10]: 4.08 µM | TGI [10]: 71.1 µM

CCN(CC)CCCC(C)Nc1c(-c2ccccc2)cnc2cc(Cl)ccc12 (centres undefined)
GI50 [1]: 6.99 µM | TGI [1]: 19.8 µM | GI50 [2]: 2.74 µM | TGI [2]: 11.5 µM | GI50 [3]: 15.3 µM | TGI [3]: 33.5 µM | GI50 [4]: 3.14 µM | TGI [4]: > 24.6 µM | GI50 [5]: 1.6 µM | TGI [5]: 3.23 µM | GI50 [6]: 10.3 µM | TGI [6]: 27.3 µM | GI50 [7]: 14.9 µM | TGI [7]: 60.4 µM | GI50 [8]: 9.62 µM | TGI [8]: 22.9 µM | GI50 [9]: 4.54 µM | TGI [9]: 17.7 µM | GI50 [10]: 4.36 µM | TGI [10]: 16.3 µM

O=C(Nc1cnc(C(F)(F)F)cn1)c1cc(Cl)ccc1O
GI50 [1]: 0.332 µM | TGI [1]: 15.2 µM | GI50 [2]: 2.56 µM | TGI [2]: > 100 µM | GI50 [4]: 0.347 µM | TGI [4]: 2.19 µM | GI50 [5]: 1.54 µM | TGI [5]: 3.14 µM | GI50 [6]: 0.296 µM | TGI [6]: 94.1 µM | GI50 [7]: 0.311 µM | TGI [7]: > 100 µM | GI50 [8]: 0.266 µM | TGI [8]: 2.35 µM | GI50 [9]: 0.29 µM | TGI [9]: > 100 µM | GI50 [10]: 0.294 µM | TGI [10]: 7.91 µM

C[C@@H]1COCCN1c1cc(-c2ccnn2C)c2ccnc(-c3ccn[nH]3)c2n1
GI50 [1]: 0.0561 µM and 0.128 µM | GI50 [2]: 0.237 µM and 0.389 µM | TGI [2]: 36.4 µM and > 100 µM | GI50 [3]: 0.0928 µM and 0.215 µM | TGI [3]: 0.732 µM and 2.06 µM | GI50 [4]: 0.0241 µM and 0.103 µM | GI50 [5]: 0.28 µM and 0.573 µM | TGI [5]: 5.7 µM and > 23.4 µM | GI50 [6]: 0.238 µM and 0.449 µM | GI50 [7]: 0.275 µM and 0.454 µM | TGI [7]: > 100 µM | GI50 [8]: 0.112 µM and 0.216 µM | TGI [8]: 1.94 µM | GI50 [9]: 0.0158 µM and 0.0425 µM | TGI [9]: 23.8 µM and > 100 µM | GI50 [10]: 0.0704 µM and 0.142 µM | TGI [10]: 0.547 µM and 1.23 µM

Nc1ncccc1-c1nc2ccc(-c3ccccc3)nc2n1-c1ccc(C2(N)CCC2)cc1
GI50 [1]: 0.333 µM | TGI [1]: 2.99 µM | GI50 [2]: 0.435 µM | TGI [2]: 3.37 µM | GI50 [3]: 0.166 µM | TGI [3]: 3.01 µM | GI50 [4]: 1.74 µM | TGI [4]: 4.75 µM | GI50 [5]: 0.422 µM | TGI [5]: 2.14 µM | GI50 [6]: 2.05 µM | TGI [6]: 12.4 µM | GI50 [7]: 0.0533 µM | TGI [7]: 3.39 µM | GI50 [8]: 1.9 µM | TGI [8]: 8.48 µM | GI50 [9]: 0.0465 µM | TGI [9]: 1.68 µM | GI50 [10]: 0.978 µM | TGI [10]: 2.52 µM
